Target: T1, human topoisomerase I (TOP1) (Homo sapiens, UniProt P11387)
T1 sequence (P11387 2-765): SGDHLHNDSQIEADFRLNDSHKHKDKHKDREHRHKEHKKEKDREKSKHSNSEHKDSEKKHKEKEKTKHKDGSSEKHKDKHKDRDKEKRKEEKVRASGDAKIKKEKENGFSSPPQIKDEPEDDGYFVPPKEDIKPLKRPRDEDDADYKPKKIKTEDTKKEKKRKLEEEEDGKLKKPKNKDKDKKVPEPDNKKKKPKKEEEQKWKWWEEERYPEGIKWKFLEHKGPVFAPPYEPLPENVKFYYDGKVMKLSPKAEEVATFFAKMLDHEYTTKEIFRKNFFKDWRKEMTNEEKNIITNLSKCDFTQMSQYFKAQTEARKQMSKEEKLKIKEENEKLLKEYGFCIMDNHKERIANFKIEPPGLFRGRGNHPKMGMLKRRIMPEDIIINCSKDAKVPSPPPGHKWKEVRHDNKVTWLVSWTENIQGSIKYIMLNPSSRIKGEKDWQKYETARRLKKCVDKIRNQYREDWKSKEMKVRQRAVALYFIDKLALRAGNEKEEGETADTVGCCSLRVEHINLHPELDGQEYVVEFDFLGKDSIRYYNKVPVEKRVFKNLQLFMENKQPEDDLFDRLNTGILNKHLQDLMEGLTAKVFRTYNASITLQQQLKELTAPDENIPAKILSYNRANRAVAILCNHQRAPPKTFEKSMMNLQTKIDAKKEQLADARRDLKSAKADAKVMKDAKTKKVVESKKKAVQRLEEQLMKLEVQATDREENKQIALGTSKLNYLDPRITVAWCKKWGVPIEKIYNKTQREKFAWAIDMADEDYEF
Assay: supercoiled plasmid DNA relaxation, agarose gel
Type: biochemical

| IC50 [µM] | SMILES |
| --- | --- |
| 0.89 | O=C(Nc1ccc(Sc2ccc(N=Nc3c(O)c(S(=O)(=O)O)cc4cc(S(=O)(=O)O)ccc34)cc2)cc1)c1ccc(N=Nc2c(O)c(S(=O)(=O)O)cc3cc(S(=O)(=O)O)ccc23)cc1 [NSC65860] |
| ~10 | O=c1c(O)c(-c2cc(O)c(O)c(O)c2)oc2cc(O)cc(O)c12 [myricetin] |

— article doi:10.1101/2021.11.16.468530v1 (biorxiv, 2021)
